Measurements reported in patent US10227357B2, “Compounds and methods for kinase modulation, and indications therefor” (Plexxikon Inc., priority 2012, dated 2019).
Like-named read-outs stand apart in the source and are kept apart here.

Experiments:
c-kit kinase = biological target: T1, c-kit kinase (Homo sapiens, UniProt P10721); test: c-Kit biochemical assay, AlphaScreen, 10 μM ATP
T1 construct: The c-kit (or kinase domain thereof) is an active kinase in AlphaScreen; poly-Histidine tag (in-house protein only) (cleaved yes); host or cells: E. coli BL21(DE3)RIL, co-expressed with PTP1B
T1 sequence (P10721 26-976): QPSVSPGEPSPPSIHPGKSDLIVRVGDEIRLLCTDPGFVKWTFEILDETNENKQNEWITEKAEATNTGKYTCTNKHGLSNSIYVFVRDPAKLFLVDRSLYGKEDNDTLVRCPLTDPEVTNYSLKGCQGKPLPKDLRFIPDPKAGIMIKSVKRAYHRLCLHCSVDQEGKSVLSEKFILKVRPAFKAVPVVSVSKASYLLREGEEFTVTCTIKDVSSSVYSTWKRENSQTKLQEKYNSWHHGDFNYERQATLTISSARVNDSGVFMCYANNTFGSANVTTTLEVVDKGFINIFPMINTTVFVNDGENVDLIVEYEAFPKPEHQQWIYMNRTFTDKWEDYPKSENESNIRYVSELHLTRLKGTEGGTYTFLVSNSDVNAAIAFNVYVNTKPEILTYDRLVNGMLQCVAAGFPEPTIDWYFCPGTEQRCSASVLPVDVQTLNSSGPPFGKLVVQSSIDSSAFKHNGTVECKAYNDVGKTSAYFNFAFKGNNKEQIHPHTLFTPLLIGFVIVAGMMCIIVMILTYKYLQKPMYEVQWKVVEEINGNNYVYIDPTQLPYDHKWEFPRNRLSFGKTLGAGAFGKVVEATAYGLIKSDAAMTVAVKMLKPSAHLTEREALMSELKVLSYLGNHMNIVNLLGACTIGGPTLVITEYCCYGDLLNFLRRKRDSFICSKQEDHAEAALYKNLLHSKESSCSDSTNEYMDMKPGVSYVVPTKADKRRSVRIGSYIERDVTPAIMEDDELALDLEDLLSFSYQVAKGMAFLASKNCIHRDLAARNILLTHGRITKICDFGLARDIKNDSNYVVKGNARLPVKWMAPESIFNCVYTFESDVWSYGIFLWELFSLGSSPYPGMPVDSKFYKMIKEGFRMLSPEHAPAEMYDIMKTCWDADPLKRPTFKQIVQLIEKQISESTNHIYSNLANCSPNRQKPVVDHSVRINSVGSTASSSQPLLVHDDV
In short: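 His-tagged c-Kit expressed in E. coli with co-expressed PTP1B (dephosphorylated), tag removed; 0.1 ng per reaction with biotinylated-peptide substrate in 50 mM HEPES pH 7.2, 5 mM MgCl2, 5 mM MnCl2, 5% DMSO, 10 μM ATP, 1 h at room temperature. Phosphorylation detected by AlphaScreen (streptavidin donor, PY20 acceptor beads); IC50 from 8-point 1:3 dilution series.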

c-kit mutant D816V = biological target: T2, c-kit mutant D816V (Homo sapiens, UniProt P10721, D816V/DEL694-753); test: c-Kit mutant D816V biochemical assay, AlphaScreen
T2 construct: residues 551-934, kinase insertion domain residues 694-753 deleted; 6x-histidine (N); made in house; host or cells: E. coli Arctic Express (DE3) RIL (Stratagene)
T2 sequence (P10721 with tags, fused parts or gaps DEL694-753/D816V): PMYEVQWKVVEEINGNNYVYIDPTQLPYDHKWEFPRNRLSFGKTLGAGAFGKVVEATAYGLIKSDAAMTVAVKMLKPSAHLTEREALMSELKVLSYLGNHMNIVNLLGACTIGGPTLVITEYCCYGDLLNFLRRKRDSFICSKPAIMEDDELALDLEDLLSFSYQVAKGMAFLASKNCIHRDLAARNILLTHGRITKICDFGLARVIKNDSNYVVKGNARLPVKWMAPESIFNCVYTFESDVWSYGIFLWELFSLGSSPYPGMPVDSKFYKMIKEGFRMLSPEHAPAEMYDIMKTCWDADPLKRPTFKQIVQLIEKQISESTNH
In short: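 Purified His-tagged c-Kit D816V (E. coli-expressed) assayed in 25 mM HEPES pH 7.2 with Mg/Mn, 5% DMSO and 10 μM ATP, 30 min at room temperature, 8-point 1:3 dilutions. Phosphorylation detected by AlphaScreen with streptavidin donor and PY20 acceptor beads; IC50 from signal versus concentration.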

[1] = c-kit biochemical inhibitory activity, read-out: Biochemical activity (IC50 μM) Kit
[2] = c-kit D816V biochemical inhibitory activity, read-out: Biochemical activity (IC50 μM) Kit D816V

SMILES | IC50 (c-kit kinase; [1]) [µM] | IC50 (c-kit mutant D816V; [2]) [µM] | IC50 (c-kit kinase) [µM] | IC50 (c-kit mutant D816V; Biochemical activity (IC50 μM) Kit D816V) [µM]
COc1cc2c(-c3ccc(NS(=O)(=O)C4CC4)cc3F)ncnc2cc1OCCCN1CCCCC1 [P-0257, N-[3-fluoro-4-[6-methoxy-7-[3-(1-piperidyl)propoxy]quinazolin-4-yl]phenyl]cyclopropanesulfonamide] | 1 to 10 | 0.0001 to 1 |  | 
COc1cc2c(-c3ccc(NS(C)(=O)=O)cc3F)ncnc2cc1OCCCN1CCCCC1 [P-0258, N-[3-fluoro-4-[6-methoxy-7-[3-(1-piperidyl)propoxy]quinazolin-4-yl]phenyl]methanesulfonamide] | 1 to 10 | 0.0001 to 1 |  | 
COCCOc1cc2ncnc(-c3ccc(NS(=O)(=O)c4ccc(OC(F)F)cc4)cc3F)c2cc1OCCOC [P-0259, N-[4-[6,7-bis(2-methoxyethoxy)quinazolin-4-yl]-3-fluoro-phenyl]-4-(difluoromethoxy)benzenesulfonamide] | 1 to 10 | 0.0001 to 1 |  | 
COCCOc1cc2ncnc(-c3ccc(NS(=O)(=O)c4cccc(F)c4)cc3F)c2cc1OCCOC [P-0260, N-[4-[6,7-bis(2-methoxyethoxy)quinazolin-4-yl]-3-fluoro-phenyl]-3-fluoro-benzenesulfonamide] | 1 to 10 | 0.0001 to 1 |  | 
COCCOc1cc2ncnc(-c3ccc(NS(=O)(=O)c4ccc(Cl)cc4)cc3F)c2cc1OCCOC [P-0261, N-[4-[6,7-bis(2-methoxyethoxy)quinazolin-4-yl]-3-fluoro-phenyl]-4-chloro-benzenesulfonamide] | 0.0001 to 1 | 0.0001 to 1 |  | 
COCCOc1cc2ncnc(-c3ccc(NS(=O)(=O)c4ccc(OC)cc4)cc3F)c2cc1OCCOC [P-0262, N-[4-[6,7-bis(2-methoxyethoxy)quinazolin-4-yl]-3-fluoro-phenyl]-4-methoxy-benzenesulfonamide] | 0.0001 to 1 | 0.0001 to 1 |  | 
COCCOc1cc2ncnc(-c3ccc(NS(=O)(=O)C4CC4)cc3F)c2cc1OCCOC [P-0263, N-[4-[6,7-bis(2-methoxyethoxy)quinazolin-4-yl]-3-fluoro-phenyl]cyclopropanesulfonamide] | 10 to 200 | 0.0001 to 1 |  | 
COCCOc1cc2ncnc(-c3ccc(NS(C)(=O)=O)cc3F)c2cc1OCCOC [P-0264, N-[4-[6,7-bis(2-methoxyethoxy)quinazolin-4-yl]-3-fluoro-phenyl]methanesulfonamide] | 10 to 200 | 0.0001 to 1 |  | 
O=S(=O)(Nc1ccc(-c2ncnc3cc4c(cc23)OCCO4)c(F)c1)C1CC1 [P-0265, N-[4-(7,8-dihydro-[1,4]dioxino[2,3-g]quinazolin-4-yl)-3-fluoro-phenyl]cyclopropanesulfonamide] | 10 to 200 | 10 to 200 |  | 
CS(=O)(=O)Nc1ccc(-c2ncnc3cc4c(cc23)OCCO4)c(F)c1 [P-0266, N-[4-(7,8-dihydro-[1,4]dioxino[2,3-g]quinazolin-4-yl)-3-fluoro-phenyl]methanesulfonamide] | 1 to 10 | 1 to 10 |  | 
COc1cc2ncnc(-c3ccc(N)cc3F)c2cc1OC [P-0267, 4-(6,7-dimethoxyquinazolin-4-yl)-3-fluoro-aniline] | 10 to 200 | 0.0001 to 1 |  | 
COc1cc2ncnc(-c3ccc(NS(=O)(=O)c4ccc(Cl)cc4)cc3F)c2cc1OC [P-0268, 4-chloro-N-[4-(6,7-dimethoxyquinazolin-4-yl)-3-fluoro-phenyl]benzenesulfonamide] | 1 to 10 | 0.0001 to 1 |  | 
CCCS(=O)(=O)Nc1ccc(-c2ncnc3cc(OC)c(OC)cc23)c(F)c1 [P-0269, N-[4-(6,7-dimethoxyquinazolin-4-yl)-3-fluoro-phenyl]propane-1-sulfonamide] | 10 to 200 | 0.0001 to 1 |  | 
COc1cc2ncnc(-c3ccc(NS(=O)(=O)C4CC4)cc3F)c2cc1OC [P-0270, N-[4-(6,7-dimethoxyquinazolin-4-yl)-3-fluoro-phenyl]cyclopropanesulfonamide] | 10 to 200 | 0.0001 to 1 |  | 
COc1cc2ncnc(-c3ccc(NS(C)(=O)=O)cc3F)c2cc1OC [P-0271, N-[4-(6,7-dimethoxyquinazolin-4-yl)-3-fluoro-phenyl]methanesulfonamide] | 1 to 10 | 0.0001 to 1 |  | 
Cc1ccc(-c2cc3c(C4=CCC(NS(=O)(=O)c5ccc(OC(F)(F)F)cc5)CC4)ncnc3[nH]2)cn1 (stereo not shown) [P-0281, N-[4-[6-(6-methyl-3-pyridyl)-7H-pyrrolo[2,3-d]pyrimidin-4-yl]cyclohex-3-en-1-yl]-4-(trifluoromethoxy)benzenesulfonamide] | 10 to 200 | 0.0001 to 1 |  | 

SMILES | IC50 (c-kit kinase; [1]) [µM] | IC50 (c-kit mutant D816V; [2]) [µM] | IC50 (c-kit kinase) [µM] | IC50 (c-kit mutant D816V; Biochemical activity (IC50 μM) Kit D816V) [µM]
CCCc1ccc(S(=O)(=O)Nc2ccc(-c3ncnc4[nH]c(C)cc34)cc2)cc1 [P-0282, N-[4-(6-methyl-7H-pyrrolo[2,3-d]pyrimidin-4-yl)phenyl]-4-propyl-benzenesulfonamide] | 1 to 10 | 0.0001 to 1 |  | 
Cc1cccc(S(=O)(=O)Nc2ccc(-c3ncnc4[nH]c(C)cc34)cc2)c1 [P-0283, 3-methyl-N-[4-(6-methyl-7H-pyrrolo[2,3-d]pyrimidin-4-yl)phenyl]benzenesulfonamide] | 10 to 200 | 1 to 10 |  | 
Cc1cc2c(-c3ccc(NS(=O)(=O)c4cccc(OC(F)(F)F)c4)cc3)ncnc2[nH]1 [P-0284, N-[4-(6-methyl-7H-pyrrolo[2,3-d]pyrimidin-4-yl)phenyl]-3-(trifluoromethoxy)benzenesulfonamide] | 10 to 200 | 1 to 10 |  | 
Cn1cc(-c2cc3c(C4=CCC(NS(=O)(=O)c5ccc(OC(F)(F)F)cc5)CC4)ncnc3[nH]2)cn1 (stereo not shown) [P-0285, N-[4-[6-(1-methylpyrazol-4-yl)-7H-pyrrolo[2,3-d]pyrimidin-4-yl]cyclohex-3-en-1-yl]-4-(trifluoromethoxy)benzenesulfonamide] | 1 to 10 | 0.0001 to 1 |  | 
Cc1ccc(S(=O)(=O)Nc2ccc(-c3ncnc4[nH]c(C)cc34)c(F)c2)cn1 [P-0286, N-[3-fluoro-4-(6-methyl-7H-pyrrolo[2,3-d]pyrimidin-4-yl)phenyl]-6-methyl-pyridine-3-sulfonamide] | 1 to 10 | 0.0001 to 1 |  | 
CCCCc1ccc(S(=O)(=O)Nc2ccc(-c3ncnc4[nH]c(C)cc34)cc2)cc1 [P-0287, 4-butyl-N-[4-(6-methyl-7H-pyrrolo[2,3-d]pyrimidin-4-yl)phenyl]benzenesulfonamide] | 10 to 200 | 1 to 10 |  | 
CCCCS(=O)(=O)Nc1ccc(-c2ncnc3[nH]c(C)cc23)cc1 [P-0288, N-[4-(6-methyl-7H-pyrrolo[2,3-d]pyrimidin-4-yl)phenyl]butane-1-sulfonamide] |  |  | 10 to 200 | 1 to 10
CCCS(=O)(=O)Nc1ccc(-c2ncnc3[nH]c(C)cc23)cc1 [P-0289, N-[4-(6-methyl-7H-pyrrolo[2,3-d]pyrimidin-4-yl)phenyl]propane-1-sulfonamide] | 10 to 200 | 0.0001 to 1 |  | 
O=S(=O)(Nc1ccc(-c2ncnc3[nH]c(C4CCCC4)cc23)cc1)c1ccc(F)cc1 [P-0290, N-[4-(6-cyclopentyl-7H-pyrrolo[2,3-d]pyrimidin-4-yl)phenyl]-4-fluoro-benzenesulfonamide] | 1 to 10 | 0.0001 to 1 |  | 
Cc1cc2c(-c3ccc(NS(=O)(=O)c4ccc(C)s4)cc3F)ncnc2[nH]1 [P-0291, N-[3-fluoro-4-(6-methyl-7H-pyrrolo[2,3-d]pyrimidin-4-yl)phenyl]-5-methyl-thiophene-2-sulfonamide] | 1 to 10 | 0.0001 to 1 |  | 
CCc1ccc(S(=O)(=O)Nc2ccc(-c3ncnc4[nH]c(C)cc34)c(F)c2)cc1 [P-0292, 4-ethyl-N-[3-fluoro-4-(6-methyl-7H-pyrrolo[2,3-d]pyrimidin-4-yl)phenyl]benzenesulfonamide] | 1 to 10 | 0.0001 to 1 |  | 
Cc1ccc(S(=O)(=O)Nc2ccc(-c3ncnc4[nH]c(C)cc34)c(F)c2)cc1 [P-0293, N-[3-fluoro-4-(6-methyl-7H-pyrrolo[2,3-d]pyrimidin-4-yl)phenyl]-4-methyl-benzenesulfonamide] | 1 to 10 | 0.0001 to 1 |  | 
Cc1cc2c(-c3ccc(NS(=O)(=O)c4ccc5c(c4)OCO5)cc3)ncnc2[nH]1 [P-0294, N-[4-(6-methyl-7H-pyrrolo[2,3-d]pyrimidin-4-yl)phenyl]-1,3-benzodioxole-5-sulfonamide] | 10 to 200 | 0.0001 to 1 |  | 
CC1(C)C=C(c2cc3c(-c4ccc(NS(=O)(=O)c5ccc(F)cc5)cc4)ncnc3[nH]2)CC(C)(C)N1 [P-0295, 4-fluoro-N-[4-[6-(2,2,6,6-tetramethyl-1,3-dihydropyridin-4-yl)-7H-pyrrolo[2,3-d]pyrimidin-4-yl]phenyl]benzenesulfonamide] | 1 to 10 | 0.0001 to 1 |  | 
O=S(=O)(Nc1ccc(-c2ncnc3[nH]c(C4=CCCC4)cc23)cc1)c1ccc(F)cc1 [P-0296, N-[4-[6-(cyclopenten-1-yl)-7H-pyrrolo[2,3-d]pyrimidin-4-yl]phenyl]-4-fluoro-benzenesulfonamide] | 1 to 10 | 0.0001 to 1 |  | 
Cc1cc2c(-c3ccc(NS(=O)(=O)c4ccc(C(F)(F)F)nc4)cc3)ncnc2[nH]1 [P-0297, N-[4-(6-methyl-7H-pyrrolo[2,3-d]pyrimidin-4-yl)phenyl]-6-(trifluoromethyl)pyridine-3-sulfonamide] | 10 to 200 | 1 to 10 |  | 
